From patent publication US20030053950A1, “Individualization of therapy with hyperlipidemia agents” (McGill University, priority 2001, published 2003)
Where two headings read alike, the source gives them in different places. Marks after values point to notes of the source that are not given here.

Assays:
[1] = tested on: 1X-Ab; assay: Competitive antigen ELISA, cross-reactivity of 1X-Ab; type: binding, rabbit; conditions: for % Cross-Reaction 1X-Ab: competitive antigen ELISA, 0 = absence of inhibition or inhibition no higher than 40% at 5 × 10^−3 M
Procedure: (§1) Buffers and water without additives are filtered through millipore filters and kept for 1 week. BSA, antibodies, Tween™ 20 and horse radish peroxidase conjugates are added to these buffers and water just prior to use. Urine samples are usually collected 4 hours after drinking a cup of coffee (instant or brewed with approximately 100 mg of caffeine per cup) and stored at −80° C. The urine samples are diluted 10 times with sodium phosphate buffer (620 mosm, pH 7.50) and are subsequently diluted with water to give concentrations of AAMU and 1X no higher than 3×10^−6 M in the ELISA. All the pipettings are done with an eight-channel pipette, except those of the antibody and sample solutions. Starting with the last well, 100 μL of a carbonate buffer (100 mM, pH 9.6) containing 2.5 μg mL-^1 antibodies are added to each well. After 90 min. at room temperature, the wells are washed three times with […] of TPB: isotonic sodium phosphate buffer (310 mosm, pH 7.50) containing 0.05% Tween™ 20.
(§2) After the initial wash, unoccupied sites are blocked by incubation for 90 min. at room temperature with 100 μL TBP containing 3% BSA. The wells are washed four times with 100 μL TPB. […] The microplate is gently shaken with an orbital shaker at room temperature for 3-4 hours. The wells are washed three times with 100 μL TPB containing 1% BSA and three times with water containing 0.05% Tween™ 20. To the washed plate is added 150 μL of a substrate buffer composed of citric acid (25 mM) and sodium phosphate dibasic buffer (50 mM, pH 5.0) containing 0.06% hydrogen peroxide and 0.04% o-phenylenediamine hydrochloride.
(§3) Buffers and water without additives were filtered through millipore filters and kept for 1 week. BSA, antibodies, Tween™ 20 and horse radish peroxidase conjugates were added to these buffers and water just prior to use. Urine samples were usually collected 4 hours after drinking a cup of coffee (instant or brewed with approximately 100 mg of caffeine per cup) and stored at −80° C. They were diluted 10 times with sodium phosphate buffer (620 mosm, pH 7.50) and were subsequently diluted with water to give concentrations of AAMU and 1X no higher than 3×10^−6 M in the ELISA. All the pipettings were done with an eight-channel pipette, except those of the antibody and sample solutions. Starting with the last well, 100 μL of a carbonate buffer (100 mM, pH 9.6) containing 2.5 μg mL-^1 antibodies was pipetted. After 90 min. at room temperature, the wells were washed three times with 100 μL of TPB: isotonic sodium phosphate buffer (310 mosm, pH 7.50) containing 0.05% Tween™ 20.
(§4) After the initial wash, unoccupied sites were blocked by incubation for 90 min. at room temperature with 100 μL TBP containing 3% BSA. The wells were washed four times with 100 μL TPB. […] The microplate was gently shaken with an orbital shaker at room temperature for 3-4 hours. The wells were washed three times with 100 μL with TPB containing 1% BSA and three times with water containing 0.05% Tween™ 20. To the washed plate was added 150 μL of a substrate buffer composed of citric acid (25 mM) and sodium phosphate dibasic buffer (50 mM, pH 5.0) containing 0.06% hydrogen peroxide and 0.04% o-phenylenediamine hydrochloride. After 20 min. at room temperature with shaking, the reaction was stopped with 50 μL of 2.5 N HCl.
(§5) The cross reactivities of AAMU-Ab and 1X-Ab were tested using a wide variety of caffeine metabolites and structural analogs (Table 2 below).

[2] = tested on: AAMU-Ab; assay: Competitive antigen ELISA, cross-reactivity of AAMU-Ab; type: binding, rabbit; conditions: for % Cross-Reaction AAMU-Ab: competitive antigen ELISA, 0 = absence of inhibition or inhibition no higher than 40% at 5 × 10^−3 M
Procedure: as §1, §2, §3, §4, §5

[3] = cited from earlier work
[4] = cited from earlier work; remark: listed apart in the source
[5] = cited from earlier work; remark: listed apart in the source

| Structure (SMILES) | % Cross-Reaction 1X-Ab [1] [%] | % Cross-Reaction AAMU-Ab [2] | further results |
| --- | --- | --- | --- |
| CC(=O)Nc1c(N)n(C)c(=O)n(C)c1=O [5-Acetamino-6-amino-1,3-dimethyluracil] | 0 | 0% | – |
| NC(=O)c1cccnc1 [Nicotinamide] | – | – | effect on lipoproteins ([3]; doses similar to those of nicotinic acid): does not have a significant effect on lipoproteins |
| O=c1[nH]c(=O)c2[nH]c(=O)[nH]c2[nH]1 [Uric acid] | 0 | 0% | – |
| O=c1cc[nH]c(=O)[nH]1 [Uracil] | 0 | 0% | – |
| Cn1c(=O)[nH]c(=O)c2[nH]cnc21 [3-Methyl Xanthine] | 0 | 0% | – |
| CC(=O)Nc1c(N)[nH]c(=O)[nH]c1=O [5-Acetamino-6-amino-uracil] | 0 | 0.6% | – |
| Cn1c(=O)[nH]c2[nH]c(=O)n(C)c2c1=O [1,7-Dimethyluric acid] | 0 | 0% | – |
| O=c1[nH]c(=O)c2[nH]cnc2[nH]1 [Xanthine] | 0 | 0^a % | – |
| Cn1cnc2[nH]c(=O)[nH]c(=O)c21 [7-Methyl Xanthine] | 0 | 0% | – |
| Nc1nc2nc[nH]c2c(=O)[nH]1 [Guanine] | 0 | 0% | – |
| Cn1cnc2c1c(=O)[nH]c(=O)n2C [3,7-Dimethyl Xanthine (Theobromine), 3,7-Dimethyl Xanthine] | 0 | 0% | – |
| O=C(O)c1cccnc1 [niacin, nicotinic acid] | – | – | LDL cholesterol reduction ([3]; 1000 to 1500 mg per day): about 15%; reduction of triglyceride levels ([3]; 1000 to 1500 mg per day): up to 30%; LDL cholesterol-lowering effect ([3]; 2000 to 4000 mg per day): ~25%; increase in HDL cholesterol level ([3]; 2000 to 4000 mg per day): up to 30%; reduction of triglyceride levels ([3]; 2000 to 4000 mg per day): up to 50%; effect on lipoproteins ([3]; low dosages (<500 mg per day)): little predictable effect |
| Cc1nc2[nH]c(=O)[nH]c(=O)c2[nH]1 [8-Methyl Xanthine] | 0 | 0% | – |
| Cn1c(=O)[nH]c2ncn(C)c2c1=O [1,7-Dimethyl Xanthine (Paraxanthine), 1,7-Dimethyl Xanthine] | 0.5 | 0% | – |
| Cn1c(=O)[nH]c2nc[nH]c2c1=O [1-Methyl Xanthine (1X), 1-Methyl Xanthine] | 100 | 0% | IC50 ([1]; read-out: concentration required for 50% inhibition in the competitive antigen ELISA, 1X-Ab): 10 µM |
| Cn1c(=O)c2[nH]cnc2n(C)c1=O [1,3-Dimethyl Xanthine (Theophylline), 1,3-Dimethyl Xanthine] | 0.2 | 0% | – |
| Cn1c(=O)[nH]c2[nH]c(=O)[nH]c2c1=O [1-Methyluric acid] | 11 | 0% | – |
| CC(=O)Nc1c(N)n(C)c(=O)[nH]c1=O [5-Acetamino-6-amino-1-methyluracil] | 0 | 100% | IC50 ([2]; read-out: concentration required for 50% inhibition in the competitive antigen ELISA, AAMU-Ab): 1500 nM |
| Cn1c(=O)c2c(ncn2C)n(C)c1=O [1,3,7-Trimethyl Xanthine (Caffeine), 1,3,7-Trimethyl Xanthine] | 0 | 0% | – |
| Nc1ccc(S(=O)(=O)c2ccc(N)cc2)cc1 [dapsone] | – | – | adverse reactions to dapsone ([4]; fast acetylators): 17%; adverse reactions to dapsone ([4]; slow acetylators): 46% |
| COc1ccc2c(c1)[C@]13CCCC[C@@H]1[C@H](C2)N(C)CC3 [Dextromethorphan] | – | – | mean performance ±SE ([5]; EMs (extensive metabolizers)): 95±0.5%; mean performance ±SE ([5]; PMs (poor metabolizers)): 86±6% |
| O=c1[nH]cnc2nc[nH]c12 [Hypoxanthine] | 0 | 0% | – |
